Assay [1] relates to NeuN and BrdU double positive granule neurons in the dentate gyrus. Briefly: NeuN/BrdU double label, newborn neurons in the dentate gyrus 35 days post-TBI. The class given is in vivo, male Wistar rats. The settings on record: 4.5 mg/kg IN twice daily, 35 days following TBI. The text has this:
(§1) Young adult (2-3 months) male Wistar rats were subjected to a moderate traumatic brain injury (TBI) induced by controlled cortical impact (CCI). Animal models of TBI including the CCI model and functional tests have been described in detail in peer reviewed publications (Xiong et al., 2013, Nat Rev Neurosci.; Zhang et al., 2016, J Neurosurg.; Zhang et al., 2016, Neurochem Int.; Zhang et al., 2021, J Neurotrauma). Injury consisted of a single impact at 4.0 m/sec, 2.5 mm deformation to the left parietal cortex. In addition, a group of animals was left healthy/not injured to serve as a healthy control.
The substance used in this study was ALPHA-1062 at 4.5 mg/kg. As control treatment (vehicle) purified water was administered intranasally (IN). The ALPHA-1062 and the control treatment were initiated 2 hours after injury and continued twice daily (with a 6-hour interval) for 35 consecutive days. […]
Histological assessment was performed including quantitative image analysis protocols; followed by statistical analysis of the data. […]
For cell counting and quantitation NeuN+ cells were examined in the ipsilateral cortex, DG, CA1, and CA3 regions of the ipsilateral hippocampus. […] The number of BrdU+ cells (red-fluorophore) and NeuN (green-fluorophore)/BrdU-colabeled cells (yellow after merge) were counted. […]

In assay [2] the test system is moderate traumatic brain injury (TBI) induced by controlled cortical impact (CCI). As to the kind of experiment: Lesion volume and hippocampal structure (H&E) 35 days post-TBI. As to conditions: 4.5 mg/kg IN twice daily, 35 days after TBI. The class given is in vivo, male Wistar rats.
From the text: as §1
The substance used in this study was ALPHA-1062 at 4.5 mg/kg. As control treatment (vehicle) purified water was administered intranasally (IN). The ALPHA-1062 and the control treatment were initiated 2 hours after injury and continued twice daily (with a 6-hour interval) for 35 consecutive days.
Histological assessment was performed including quantitative image analysis protocols; followed by statistical analysis of the data. Histology: All rats were sacrificed after the last Morris water maze (MWM) test 35 days after TBI for the following histological analyses: lesion volume (H&E), neuronal cell loss in injured cortex and hippocampus (NeuN), doublecortin (DCX, neuroblasts), NeuN/BrdU (newborn neurons), pathological p-Tau (AT8) and total Tau IHC. […]

On to `COc1ccc2c3c1O[C@H]1C[C@@H](OC(=O)c4ccccc4)C=C[C@@]31CCN(C)C2` [ALPHA-1062, (4aS,6R,8aS)-5,6,9,10,11,12-hexahydro-3-methoxy-11-methyl-4aH-[1]benzofuro[3a,3,2-ef][2]benzazepin-6-ol benzoate], for which, in assay [1], the “NeuN and BrdU double positive granule neurons compared to both vehicle-treated and sham surgery animals” value was “significantly higher (p<0.05) numbers”. In assay [2], the “hippocampal structure on the injured side of the brain” value was “preservation of hippocampal structure”. The lesion volume result in assay [2] (vs vehicle) is given as “significant (p<0.05) reduction of lesion volume”.

The record behind these values is patent US12589099B2 (priority 2021, dated 2026).
